# Results from patent publication US20230159510A1, “NOVEL PRMT5 INHIBITORS” (AMGEN INC., priority 2020, published 2023).
# Read-outs that look alike come from different tables or passages of the source.
# Experiments:
# HCT116 MTAP null cells = assay: HCT116 proliferation assay, MTAP null cells (CellTiter-Glo, 6 days); type: cell-based; details: 144 h, read-out: Protif_ HCT116-MTAP null IC50
# Procedure, shortened: (§1)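 Cells were plated in RPMI 1640 with 10% fetal bovine serum and left overnight at 37° C and 5% CO2. Compound was then added as an 8- or 9-point 1:3 dilution series from a top concentration of 1 or 10 µM, alongside a DMSO-only control. Viability was read by luminescence.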
# HCT116 WT cells = assay: HCT116 proliferation assay, WT cells (CellTiter-Glo, 6 days); type: cell-based; details: Homo sapiens, HCT-116, 144 h, read-out: Prolif_HCT116-WT IC50
# Procedure, shortened: as §1
# PRMT5/MEP50 = PRMT5/MEP50 (Homo sapiens, UniProt O14744); assay: MTase-Glo methyl transferase assay, Method A (Histone H4 peptide, 1 µM MTA, 24 h pre-incubation); type: biochemical; set-up: made in house; details: read-out: PRMT5 MTase Glo Ki (nM, Meth. A)
# Protocol: Method A: The PRMT5 inhibitory activity of test compounds was determined using the MTase-Glo™ assay (Promega), which monitors the product (S-adenosyl homocysteine or SAH) of methyltransferase reactions. The PRMT5 MTase-Glo assay was conducted in a 384-well white ProxiPlate (PerkinElmer) in a total volume of 12 µL. The PRMT5 enzymatic reaction (in 4 µL) contained 10 nM PRMT5/MEP50 (produced at Amgen), 5 µM S-adenosyl methionine (SAM, Promega), 1 µM Histone H4 (1-21)-Lys(Biotin) (Anaspec), 1 µM 5′-methylthioadenosine (MTA, Sigma) and two-fold serially diluted compounds in a reaction buffer of 50 mM Tris (pH 8.0), 50 mM NaCl, 0.01% Tween 20, 0.01% BSA, and 1 mM DTT. Test compounds were pre-incubated with PRMT5/MEP50, SAM, and MTA for 24 hours before addition of Histone H4 peptide to initiate the PRMT5 reaction. The reaction was allowed to proceed for 2 hours at room temperature and was then terminated by addition of 2 µL of 3X MTase-Glo™ Reagent (Promega) and 150 µM EPZ015666 (Sigma). After a 30-minute incubation at room temperature, 6 µL of MTase-Glo™ Detection Solution (Promega) was added and the plate was incubated at room temperature for an additional 30 minutes. The light signal corresponding to the amount of SAH produced by the PRMT5 reaction was subsequently measured using an Envision multimode reader (PerkinElmer). IC50 and KI values were obtained by analyzing dose-response curves using Genedata Screener (Genedata).
# PRMT5/MEP50, sequence (O14744 whole entry): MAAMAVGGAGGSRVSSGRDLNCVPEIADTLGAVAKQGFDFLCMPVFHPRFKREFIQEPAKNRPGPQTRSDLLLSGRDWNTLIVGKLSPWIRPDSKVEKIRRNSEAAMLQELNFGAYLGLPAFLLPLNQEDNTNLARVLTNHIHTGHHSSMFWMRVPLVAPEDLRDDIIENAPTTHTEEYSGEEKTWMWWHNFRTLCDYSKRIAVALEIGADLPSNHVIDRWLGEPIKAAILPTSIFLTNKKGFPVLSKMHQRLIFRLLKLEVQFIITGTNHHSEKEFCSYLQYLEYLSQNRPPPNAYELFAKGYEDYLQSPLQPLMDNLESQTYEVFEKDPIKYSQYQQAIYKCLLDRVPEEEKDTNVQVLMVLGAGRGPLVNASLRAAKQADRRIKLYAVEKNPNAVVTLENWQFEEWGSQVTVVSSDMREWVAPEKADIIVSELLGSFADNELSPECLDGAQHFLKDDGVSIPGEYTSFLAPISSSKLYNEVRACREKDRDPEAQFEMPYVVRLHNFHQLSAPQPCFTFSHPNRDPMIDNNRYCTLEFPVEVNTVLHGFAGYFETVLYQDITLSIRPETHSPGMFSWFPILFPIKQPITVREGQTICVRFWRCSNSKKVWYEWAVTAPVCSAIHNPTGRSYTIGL
# PRMT5/MEP50, sequence (Q9BQA1 whole entry partner): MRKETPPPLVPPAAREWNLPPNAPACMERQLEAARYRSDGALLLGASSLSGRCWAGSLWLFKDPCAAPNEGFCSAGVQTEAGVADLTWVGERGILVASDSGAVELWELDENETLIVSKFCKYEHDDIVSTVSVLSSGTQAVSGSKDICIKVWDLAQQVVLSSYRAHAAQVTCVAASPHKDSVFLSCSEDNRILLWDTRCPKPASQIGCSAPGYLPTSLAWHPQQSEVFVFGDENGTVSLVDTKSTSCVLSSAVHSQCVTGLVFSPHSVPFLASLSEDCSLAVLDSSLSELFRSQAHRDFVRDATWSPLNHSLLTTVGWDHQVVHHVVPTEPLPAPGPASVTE
SMILES,IC50 (HCT116 MTAP null cells; HCT116-MTAP null),IC50 (HCT116 WT cells),Ki (PRMT5/MEP50),IC50 (HCT116 MTAP null cells)
"Cc1cc2cc(C(=O)N(Cc3ccc4ccccc4n3)[C@H](C)c3ncccn3)ccc2nc1N (single isomer, unassigned) [Example 446]",45 nM,851 nM,0.04 nM,–
"Cc1cc2cc(C(=O)N(Cc3cnc4ccccc4c3)[C@H](C)c3ncccn3)ccc2nc1N (single isomer, unassigned) [Example 447]",673 nM,> 10000 nM,5.51 nM,–
"Cc1cc2cc(C(=O)N(Cc3cnc(C(F)(F)F)cn3)[C@H](C)c3ncccn3)ccc2nc1N (single isomer, unassigned) [Example 449]",168 nM,5900 nM,0.27 nM,–
"Cc1cc2cc(C(=O)N(Cc3ccc(Br)nn3)[C@H](C)c3ncccn3)ccc2nc1N (single isomer, unassigned) [Example 450]",45 nM,2020 nM,0.13 nM,–
"Cc1cc2cc(C(=O)N(Cc3ccc(C(F)(F)F)cn3)[C@@H](c3ncccn3)C3CC3)ccc2nc1N (single isomer, unassigned) [Example 452]",22 nM,480 nM,0.06 nM,–
"CO[C@@H](CN(Cc1ccc(C(F)(F)F)cn1)C(=O)c1cnc2nc(N)c(Br)cc2c1)C(F)(F)F (single isomer, unassigned) [Example 454]",252 nM,3940 nM,0.15 nM,–
"Cc1cc2cc(C(=O)N(Cc3ccc(C(F)F)cn3)[C@H](C)c3ncc(F)cn3)ccc2nc1N (single isomer, unassigned) [Example 455]",100 nM,2940 nM,0.16 nM,–
"Cc1cc2cc(C(=O)N(Cc3ccc(C(F)(F)F)cn3)[C@@H]3CCOc4cccnc43)ccc2nc1N (single isomer, unassigned) [Example 456]",39 nM,816 nM,0.3 nM,–
"Cc1cc2cc(C(=O)N(Cc3ccc(C(F)(F)F)cn3)C[C@@H](C)C(F)(F)F)ccc2nc1N (single isomer, unassigned) [Example 457]",–,> 10000 nM,0.78 nM,717 nM
"Cc1cc2cc(C(=O)N(Cc3ccc(C(F)(F)F)cn3)[C@@H]3CCOc4ncccc43)ccc2nc1N (single isomer, unassigned) [Example 459]",78 nM,2340 nM,0.25 nM,–
"Cc1cc2cc(C(=O)N(Cc3ccc(C(F)(F)F)cn3)[C@@H]3CCCN(C)C3=O)ccc2nc1N (single isomer, unassigned) [Example 460]",155 nM,7850 nM,1.82 nM,–
"Cc1cc2cc(C(=O)N(Cc3ccc(C(F)(F)F)cn3)[C@@H]3CCCNC3=O)ccc2nc1N (single isomer, unassigned) [Example 461]",322 nM,7780 nM,1.23 nM,–
"Cc1cc2cc(C(=O)N(Cc3ccc(C(F)(F)F)cn3)[C@@H]3CCCN(C4CC4)C3=O)ccc2nc1N (single isomer, unassigned) [Example 462]",349 nM,> 10000 nM,0.29 nM,–
"Cc1cc2cc(C(=O)N(Cc3ccc(C(F)(F)F)cn3)[C@@H]3CCCn4ncnc43)ccc2nc1N (single isomer, unassigned) [Example 464]",71 nM,1510 nM,0.1 nM,–
"Cc1cc2cc(C(=O)N(Cc3ccc(C(F)(F)F)cn3)[C@@H]3CCCC(F)(F)[C@@H]3O)ccc2nc1N (single isomer, unassigned) [Example 466]",269 nM,4270 nM,0.13 nM,–
"Nc1nc2ncc(C(=O)N(Cc3ccc(C(F)(F)F)cn3)[C@@H]3CCCc4nccnc43)cc2cc1Br (single isomer, unassigned) [Example 467]",28 nM,248 nM,0.21 nM,–
"COc1nc(C(F)(F)F)ccc1CN(C(=O)c1ccc2nc(N)c(C)cc2c1)[C@H](C)c1ncccn1 (single isomer, unassigned) [Example 469]",33 nM,592 nM,0.03 nM,–
"Cc1nc(CN(C(=O)c2cnc3nc(N)c(Br)cc3c2)[C@H](C)c2ncccn2)ccc1Br (single isomer, unassigned) [Example 470]",93 nM,2210 nM,0.09 nM,–
"Cc1cc2cc(C(=O)N(Cc3ccc(C(F)(F)F)cn3)[C@@H]3COCC[C@@H]3O)ccc2nc1N (single isomer, unassigned) [Example 471]",101 nM,3110 nM,0.11 nM,–
"Cc1cc2cc(C(=O)N(Cc3ncc(Br)cc3C)[C@H](C)c3ncccn3)ccc2nc1N (single isomer, unassigned) [Example 474]",88 nM,3270 nM,0.04 nM,–
"Cc1cc2cc(C(=O)N(Cc3ccc(C#N)cc3)[C@H](C)c3ncccn3)ccc2nc1N (single isomer, unassigned) [Example 475]",268 nM,4460 nM,0.07 nM,–
"COc1ccc(CN(C(=O)c2cc3cc(C)c(N)nc3cc2F)[C@H](C)c2ncccn2)nn1 (single isomer, unassigned) [Example 479]",60 nM,1220 nM,0.09 nM,–
"COc1ccc(CN(C(=O)c2cc3cc(C)c(N)nc3cc2F)[C@@H](C)c2ncccn2)nn1 (single isomer, unassigned) [Example 480]",369 nM,1460 nM,1.49 nM,–
"Cc1cc2cc(C(=O)N(Cc3ccc(C(F)(F)F)cn3)[C@H](C)c3cnccn3)ccc2nc1N (single isomer, unassigned) [Example 482]",106 nM,4320 nM,0.1 nM,–
"Cc1cc2cc(C(=O)N(Cc3cnc(C(F)(F)F)cn3)[C@H](C)c3ccc(F)cn3)ccc2nc1N (single isomer, unassigned) [Example 483]",515 nM,> 10000 nM,1.02 nM,–

# More lines, in order of falling IC50 (HCT116 MTAP null cells; HCT116-MTAP null), values ahead:
IC50 (HCT116 MTAP null cells; HCT116-MTAP null),IC50 (HCT116 WT cells),Ki (PRMT5/MEP50),SMILES,IC50 (HCT116 MTAP null cells)
889 nM,> 10000 nM,1.04 nM,"Cc1cc2cc(C(=O)N(CC(C)C)[C@H](C)c3ccc(C(F)(F)F)cn3)ccc2nc1N (single isomer, unassigned) [Example 472]",–
549 nM,> 10000 nM,0.53 nM,"C[C@H](c1ncccn1)N(Cc1ccc(C(F)(F)F)nn1)C(=O)c1ccc2nc(N)c(Cl)cc2c1 (single isomer, unassigned) [Example 445]",–
302 nM,5110 nM,0.17 nM,"Cc1cc2cc(C(=O)N(Cc3ccc(C#N)cn3)[C@H](C)c3ccccn3)ccc2nc1N (single isomer, unassigned) [Example 473]",–
238 nM,5230 nM,0.32 nM,"Cc1cc2cc(C(=O)N(Cc3ccc(Br)cn3)[C@@H]3CCCN(C)C3=O)ccc2nc1N (single isomer, unassigned) [Example 448]",–
225 nM,4450 nM,0.18 nM,"Cc1cc2cc(C(=O)N(Cc3ccc(C(F)(F)F)cn3)[C@H](C)c3ncc(F)cn3)cnc2nc1N (single isomer, unassigned) [Example 481]",–
195 nM,5640 nM,0.11 nM,"Cc1cc2cc(C(=O)N(Cc3ccc(C(F)(F)F)nc3)[C@H](C)c3ncccn3)ccc2nc1N (single isomer, unassigned) [Example 477]",–
123 nM,3830 nM,0.42 nM,"Cc1cc2cc(C(=O)N(Cc3ccc(C(F)(F)F)cn3)[C@H](C)c3ncccn3)cnc2nc1N (single isomer, unassigned) [Example 486]",–
65 nM,1720 nM,0.06 nM,"CO[C@H](CN(Cc1ccc(C(F)(F)F)cn1)C(=O)c1ccc2nc(N)c(C)cc2c1)C(F)(F)F (single isomer, unassigned) [Example 453]",–
35 nM,1280 nM,0.1 nM,"Cc1cc2cc(C(=O)N(Cc3ccc(C(F)(F)F)nn3)[C@H](C)c3ncccn3)ccc2nc1N (single isomer, unassigned) [Example 488]",–
34 nM,853 nM,< 0.1 nM,"Cc1cc2cc(C(=O)N(Cc3ccc(Cl)c(C)n3)[C@H](C)c3ncccn3)ccc2nc1N (single isomer, unassigned) [Example 468]",–
26 nM,730 nM,0.04 nM,"Cc1cc2cc(C(=O)N(Cc3ccc(OC(F)(F)F)cn3)[C@H](C)c3ncccn3)ccc2nc1N (single isomer, unassigned) [Example 487]",–
13 nM,232 nM,0.02 nM,"Cc1cc2cc(C(=O)N(Cc3ccc(C(F)(F)F)cn3)[C@@H]3CCOc4ccc(F)nc43)ccc2nc1N (single isomer, unassigned) [Example 451]",–
